Four compounds from patent US10822349B2, “Macrocyclic purines for the treatment of viral infections” (JANSSEN SCIENCES IRELAND UNLIMITED COMPANY, priority 2012, dated 2020) can be followed below.

Like-named read-outs stand apart in the source and are kept apart here.

For this series the following is noted: rcm bond.

The compound `CCOC(=O)N1CCc2cccc(c2)OCC=CCOc2nc(N)c([N+](=O)[O-])c1n2` displayed a ring closure, yield of all isomers (from C=CCOc1cccc(CCN(C(=O)OCC)c2nc(OCC=C)nc(N)c2[N+](=O)[O-])c1, Grubbs 2nd generation, dichloromethane, 5.2 mM, 25.0 °C, 36.0 h) of 56.5%. Where the note is “from C=CCOc1nc(N)c([N+](=O)[O-])c(N(Cc2ccc(F)c(OCC=C)c2)C(=O)OCC)n1, Grubbs-Hoveyda catalyst 2nd generation (with chlorodicyclohexylborane), 1,2-dichloroethane, 5.07 mM, 120.0 °C, 3.0 h”, `CCOC(=O)N1Cc2ccc(F)c(c2)OCC=CCOc2nc(N)c([N+](=O)[O-])c1n2` yielded a ring closure, yield of all isomers of 58%. Under “from C=CCOc1nc(N)c([N+](=O)[O-])c(N(Cc2ccc(OC)c(OCC=C)c2)C(=O)OCC)n1, Grubbs catalyst 2nd generation, CH2Cl2, 3.63 mM, 25.0 °C, 66.0 h”, `CCOC(=O)N1Cc2ccc(OC)c(c2)OCC=CCOc2nc(N)c([N+](=O)[O-])c1n2` yielded a ring closure, yield of all isomers of 7.6%. `CCOC(=O)N1Cc2cccc(c2)OCC=CCOc2nc(N)c([N+](=O)[O-])c1n2`: under “from C=CCOc1cccc(CN(C(=O)OCC)c2nc(OCC=C)nc(N)c2[N+](=O)[O-])c1, Hoveyda-Grubbs 2nd generation (with chlorodicyclohexylborane), 1,2-dichloroethane, 4.22 mM, 120.0 °C, 4.0 h”, the ring closure, yield of all isomers stood at 36%.
